Test results published in patent publication US20040127411A1, “Methods for treating lung cancer using insulin-like growth factor binding protein-3” (Insmed, Inc., priority 2002, published 2004).
Like-named read-outs stand apart in the source and are kept apart here. Marks after values point to notes of the source that are not given here.

Legend:
3LL Lewis lung tumor = test: Treatment of 3LL murine Lewis lung tumors in C57BL6 mice; type: in vivo; details: for Mean Tumor Volume: day 23, mean ± SEM
Description: Female C57BL6 mice (8 animals per group) received bilateral SC implants of 3LL Lewis lung tumor fragments on day 0 and were treated subcutaneously with vehicle, rhIGFBP-3 (3 or 10 mg/kg twice daily×21), carboplatin (25 or 50 mg/kg; IP; single dose) or a combination of agents beginning on day 2.

[1] = Pharmacokinetics of rhIGFBP-3 after single SC injection in rats; type: in vivo
Description: The purpose of this study was to characterize the pharmacokinetic profile of rhIGFBP-3 following a single SC administration to rats. Adult male rats (N=5/group) were administered doses of 3-30 mg/kg rhIGFBP-3 by bolus SC injection and blood specimens were collected for drug concentration analysis.

[2] = system: MCF-7 human breast xenografts; test: Early treatment of MCF-7 human breast xenografts in CD1 nu/nu mice; type: in vivo
Description: Female CD1 nu/nu mice (12 animals per group) received SC implants of 5×10^6 MCF-7 cells. On the same day, mice received either vehicle or rhIGFBP-3 IP at a dose of 20 mg/kg. Mice were then treated with either vehicle or rhIGFBP-3 (20 mg/kg twice daily) for 10 weeks. Tumor volume was monitored beginning on week 2 and measured 3 times thereafter. […] In addition, the 3 tumors that did arise in the rhIGFBP-3 group were smaller than those in the control group.

[3] = system: MCF-7 breast tumor xenografts; test: Treatment of established MCF-7 human breast tumors with rhIGFBP-3 and paclitaxel in balb/c nu/nu mice; type: in vivo
Description: Female balb/c nu/nu mice (8 animals per group) received bilateral SC implants of MCF-7 breast tumor fragments which were allowed to grow to volumes of 100-150 mm^3 prior to initiation of treatment. Upon establishment of the tumors, mice were treated with vehicle, rhIGFBP-3 (3, 10 or 30 mg/kg twice daily; SC×21), paclitaxel (10 or 20 mg/kg; IP; daily for 5 days) or a combination of agents. Tumors were measured twice weekly for 3 weeks and net tumor growth was calculated at each time point.

[4] = system: LoVo colorectal carcinoma xenografts; test: Treatment of LoVo human colorectal carcinoma xenografts with rhIGFBP-3 and irinotecan in balb/c nu/nu mice; type: in vivo; details: for effect after discontinuation of treatment: treatment discontinued day 21, monitored to day 40
Description: Female balb/c nu/nu mice (8 animals per group) received bilateral SC implants of LoVo colorectal carcinoma fragments which were allowed to grow to volumes of 100-150 mm3 prior to initiation of treatment. Upon establishment of the tumors, mice were treated with vehicle, rhIGFBP-3 (3, 10 or 30 mg/kg twice daily; SC x 21), irinotecan (10 or 20 mg/kg; IP; 4 doses at 4 day intervals) or a combination of agents. All treatment was discontinued on day 21 and mice were monitored for tumor response out to day 40. Net tumor growth was calculated at each time point.

[5] = system: MCF-7 human breast cancer cells; test: MCF-7 cell proliferation (MTT) with increasing rhIGFBP-3; type: cell-based; details: 5% FBS, 4 days, increasing concentrations
Description: FIG. 5(A) depicts the MCF-7 breast cancer cell proliferation as assayed by MTT in increasing concentrations of rhIGFBP-3.
The purpose of this study was to evaluate the effects of rhIGFBP-3 alone and in combination with radiation therapy in MCF-7 human breast cancer cells. MCF-7 cells were plated and cultured in 5% FBS for 4 days with increasing concentrations of rhIGFBP-3 in the media.

BT474 = test: Growth inhibition (MTT assay), BT474; type: cell-based, human
BT474/HerR = test: Growth inhibition (MTT assay), BT474/HerR; type: cell-based, human
SKBR3 = test: Growth inhibition (MTT assay), SKBR3; type: cell-based, human
SKBR3/IGF-IR = test: Growth inhibition (MTT assay), SKBR3/IGF-IR; type: cell-based, human
MCF-7/HER2-18 = test: Growth inhibition (MTT assay), MCF-7/HER2-18; type: cell-based, human
[6] = rat, in vivo, iv
Description: (§1) The purpose of this study was to characterize the pharmacokinetic profile of rhIGFBP-3 following a single IV administration to rats. Adult male Sprague-Dawley rats (N=3/group) were administered doses of 0.8-160 mg/kg rhIGFBP-3 and blood specimens were collected for drug measurement.

[7] = system: MCF-7 human breast cancer cells; details: for cell survival: 1 μg/mL, day 12
Description: In a second experiment, MCF-7 cells were exposed to increasing doses of irradiation and rhIGFBP-3 24 hours after plating. Cell survival was determined on day 12.

[8] = Pharmacokinetics of rhIGFBP-3 after single IV administration to rats; details: for AUC / Cmax: mean ± SD
Description: as §1

[9] = 20 mg/kg twice daily, after 10 weeks, mean ± SD
[10] = IV, 8.0 mg/kg vs 0.8 mg/kg (ten fold increase in dose)

Compound: N.N.O=C([O-])C1(C(=O)[O-])CCC1.[Pt+2] [Carboplatin, carboplatin, reference compound]
- Mean Tumor Volume (3LL Lewis lung tumor; 25 mg/kg IP single dose): 144.92 ± 31.36* mm^3
- Mean Tumor Volume (3LL Lewis lung tumor; 50 mg/kg IP single dose): 187.36 ± 37.42* mm^3

Compound: rhIGFBP-3: recombinant human insulin-like growth factor binding protein-3; preferred form from E. coli, native human sequence, lacks glycosylation
- absorption following SC administration ([1]; SC): readily absorbed into the circulation
- AUC ([1]; SC, 3 mg/kg): 5347 ± 909 ng·h/mL
- CL/W ([1]; SC, 3 mg/kg): 9.63 ± 2.03 mL/min/kg
- Cmax ([1]; SC, 3 mg/kg): 751 ± 120 ng/mL
- AUC ([1]; SC, 10 mg/kg): 12999 ± 933 ng·h/mL
- CL/W ([1]; SC, 10 mg/kg): 12.9 ± 1 mL/min/kg
- Cmax ([1]; SC, 10 mg/kg): 2255 ± 217 ng/mL
- increase in AUC compared to the 3 mg/kg group ([1]; SC, 10 mg/kg): approximately 2.5 fold
- AUC ([1]; SC, 30 mg/kg): 54476 ± 7517 ng·h/mL
- CL/W ([1]; SC, 30 mg/kg): 9.33 ± 1.42 mL/min/kg
- Cmax ([1]; SC, 30 mg/kg): 6924 ± 1021 ng/mL
- increase in AUC compared to the 3 mg/kg group ([1]; SC, 30 mg/kg): ~10 fold
- signs of toxicity ([1]; single SC, 3-30 mg/kg): No signs of toxicity
- Mean Tumor Volume (3LL Lewis lung tumor; 3 mg/kg twice daily SC x21): 289.00 ± 42.97 mm^3
- reduction in tumor volume compared with carboplatin (3LL Lewis lung tumor; 10 mg/kg twice daily): equal to that observed with the standard chemotherapeutic agent carboplatin
- Mean Tumor Volume (3LL Lewis lung tumor; 10 mg/kg twice daily SC x21): 149.73 ± 25.34* mm^3
- 3LL Lewis lung tumor growth, single agent (3LL Lewis lung tumor; 3 or 10 mg/kg twice daily SC): dose-dependently inhibited
- effect in combination with carboplatin (3LL Lewis lung tumor; rhIGFBP-3 3 or 10 mg/kg twice daily + carboplatin 25 or 50 mg/kg IP): did not potentiate the effects of carboplatin
- Number of Mice with Tumors ([2]; 20 mg/kg twice daily IP, after 10 weeks): 3/12
- MCF-7 tumor establishment compared to control ([2]; 20 mg/kg twice daily for 10 weeks): prevented MCF-7 tumor establishment
- Mean Tumor Volume [2, 9]: 37.7 ± 42.0 mm^3
- Mean Tumor Weight [2, 9]: 0.046 ± 0.047 g
- tumor volume compared to control, all mice in each group ([2]; end of treatment, p≦0.05): significantly lower
- net tumor growth, single agent ([3]; 3, 10 or 30 mg/kg twice daily SC x21): did not inhibit net tumor growth
- effect in combination with paclitaxel ([3]; maximum effect at 10 mg/kg rhIGFBP-3 and 20 mg/kg paclitaxel): enhanced the effect of paclitaxel
- net tumor growth, combination with irinotecan ([4]; 30 mg/kg rhIGFBP-3 + 10 mg/kg irinotecan): optimal results
- inhibition of net tumor growth, single agent, vs 10 mg/kg irinotecan ([4]; 30 mg/kg twice daily SC x21): equally effective
- effect after discontinuation of treatment [4]: persisting effect
- maximum growth suppression compared to control [5]: 50%
- Growth Inhibition (MTT Assay) (BT474; 0.1-100 μg/ml): 10-20%
- effect when combined with Herceptin, in words (BT474; combined with Herceptin): did not significantly enhance Herceptin sensitivity
- Growth Inhibition (MTT Assay) (BT474/HerR; 0.1-100 μg/ml): 10-26%
- effect when combined with Herceptin, in words (BT474/HerR; combined with Herceptin): strong dose-dependent increase in Herceptin sensitivity
- growth inhibition in words, single agent (BT474/HerR; single agent): less pronounced effect
- Growth Inhibition (MTT Assay) (SKBR3; 0.1-100 μg/ml): 20-40%
- effect when combined with Herceptin, in words (SKBR3; combined with Herceptin): modest effect
- Growth Inhibition (MTT Assay) (SKBR3/IGF-IR; 0.1-100 μg/ml): 12-40%
- effect when combined with Herceptin, in words (SKBR3/IGF-IR; combined with Herceptin): strong dose-dependent increase in Herceptin sensitivity
- growth inhibition in words, single agent (SKBR3/IGF-IR; single agent): marked dose-dependent growth inhibition
- Growth Inhibition (MTT Assay) (MCF-7/HER2-18; 0.1-100 μg/ml): 15-55%
- effect when combined with Herceptin, in words (MCF-7/HER2-18; combined with Herceptin, compared to rhIGFBP-3 alone): marginal dose-dependent increase in growth inhibition
- growth inhibition in words, single agent (MCF-7/HER2-18; single agent): marked dose-dependent growth inhibition
- CL/W ([6]; 0.8 mg/kg): 7.07 ± 3.12 mL/min/kg
- CL/W ([6]; 8 mg/kg): 13.4 ± 1.62 mL/min/kg
- CL/W ([6]; 80 mg/kg): 6.33 ± 1.07 mL/min/kg
- CL/W ([6]; 160 mg/kg): 9.65 ± 2.42 mL/min/kg
- cell survival ([7]; 0 Gy): ~65%
- cell survival ([7]; 2 Gy): 37%
- cell survival ([7]; 4 Gy): 21%
- cell survival ([7]; 6 Gy): 5%
- effect on radiation-induced cell death ([7]; all radiation doses): accentuated this effect on cell death at all doses
- drug concentration in the serum ([8]; IV 0.8 mg/kg, four hours after administration, below quantitative limitation of the assay): < 300 ng/mL
- AUC ([8]; IV, 0.8 mg/kg): 2172 ± 999 ng·h/mL
- Cmax ([8]; IV, 0.8 mg/kg): 3067 ± 551 ng/mL
- fold increase in AUC [8, 10]: 4.6 fold
- fold increase in Cmax [8, 10]: 1.6 fold
- AUC ([8]; IV, 8.0 mg/kg): 10057 ± 1248 ng·h/mL
- Cmax ([8]; IV, 8.0 mg/kg): 4967 ± 1159 ng/mL
- AUC ([8]; IV, 80 mg/kg): 215060 ± 39102 ng·h/mL
- AUC ([8]; IV, 160 mg/kg): 287575 ± 64180 ng·h/mL
- Cmax ([8]; IV, 160 mg/kg): 476667 ± 122202 ng/mL
- drug serum concentrations 8 hours after dosing ([8]; IV, all dose groups other than 0.8 mg/kg): detectable
- Cmax ([8]; IV): 360333 ± 62772 ng/mL
- adverse clinical signs ([8]; single IV, any dose tested (0.8-160 mg/kg)): no adverse clinical signs

Compound: CCc1c2c(nc3ccc(OC(=O)N4CCC(N5CCCCC5)CC4)cc13)-c1cc3c(c(=O)n1C2)COC(=O)[C@]3(O)CC [irinotecan, reference compound]
- effect after discontinuation of treatment [4]: persisting effect
